Tested on: CRFK cells
Details: cat

Structure (SMILES) | CC50
CC(C)C[C@H](NC(=O)OC1CN(C(=O)OC(C)(C)C)C1)C(=O)N[C@@H](C[C@H]1CCNC1=O)C(O)S(=O)(=O)O (stereo partly drawn) [Compound 12c, Sodium (2S)-2-((S)-2-((((1-(tert-butoxycarbonyl)azetidin-3-yl)oxy)carbonyl)amino)-4-methylpentanamido)-1-hydroxy-3-((R)-2-oxopyrrolidin-3-yl)propane-1-sulfonate] | > 100 µM
CC(C)C[C@H](NC(=O)OC1(C)CN(C(=O)OC(C)(C)C)C1)C(=O)N[C@H](C=O)C[C@H]1CCNC1=O [Compound 13b, Tert-butyl 3-methyl-3-((((S)-4-methyl-1-oxo-1-(((S)-1-oxo-3-((R)-2-oxopyrrolidin-3-yl)propan-2-yl)amino)pentan-2-yl)carbamoyl)oxy)azetidine-1-carboxylate] | > 100 µM
CC(C)C[C@H](NC(=O)OC1(C)CN(C(=O)OC(C)(C)C)C1)C(=O)N[C@@H](C[C@H]1CCNC1=O)C(O)S(=O)(=O)O (stereo partly drawn) [Compound 13c, Sodium (2S)-2-((S)-2-((((1-(tert-butoxycarbonyl)-3-methylazetidin-3-yl)oxy)carbonyl)amino)-4-methylpentanamido)-1-hydroxy-3-((R)-2-oxopyrrolidin-3-yl)propane-1-sulfonate] | > 100 µM
CC(C)C[C@H](NC(=O)OCC1CN(C(=O)Cc2ccccc2)C1)C(=O)N[C@H](C=O)C[C@H]1CCNC1=O [Compound 15b, (1-(2-Phenylacetyl)azetidin-3-yl)methyl ((S)-4-methyl-1-oxo-1-(((S)-1-oxo-3-((R)-2-oxopyrrolidin-3-yl)propan-2-yl)amino)pentan-2-yl)carbamate] | > 100 µM
CC(C)C[C@H](NC(=O)OCC1CN(C(=O)Cc2ccccc2)C1)C(=O)N[C@@H](C[C@H]1CCNC1=O)C(O)S(=O)(=O)O (stereo partly drawn) [Compound 15c, Sodium (2S)-1-hydroxy-2-((S)-4-methyl-2-((((1-(2-phenylacetyl)azetidin-3-yl)methoxy)carbonyl)amino)pentanamido)-3-((R)-2-oxopyrrolidin-3-yl)propane-1-sulfonate] | > 100 µM
CC(C)C[C@H](NC(=O)OCC1CN(C(=O)C2CC3CCC2C3)C1)C(=O)N[C@H](C=O)C[C@H]1CCNC1=O (stereo partly drawn) [Compound 16b, (1-(Bicyclo[2.2.1]heptane-2-carbonyl)azetidin-3-yl)methyl ((S)-4-methyl-1-oxo-1-(((S)-1-oxo-3-((R)-2-oxopyrrolidin-3-yl)propan-2-yl)amino)pentan-2-yl)carbamate] | > 100 µM
CC(C)C[C@H](NC(=O)OCC1CN(C(=O)C2CC3CCC2C3)C1)C(=O)N[C@@H](C[C@H]1CCNC1=O)C(O)S(=O)(=O)O (stereo partly drawn) [Compound 16c, Sodium (2S)-2-((2S)-2-((((1-(bicyclo[2.2.1]heptane-2-carbonyl)azetidin-3-yl)methoxy)carbonyl)amino)-4-methylpentanamido)-1-hydroxy-3-((R)-2-oxopyrrolidin-3-yl)propane-1-sulfonate] | > 100 µM
CC(C)C[C@H](NC(=O)OCC1CN(S(C)(=O)=O)C1)C(=O)N[C@H](C=O)C[C@H]1CCNC1=O [Compound 17b, (1-(Methylsulfonyl)azetidin-3-yl)methyl ((S)-4-methyl-1-oxo-1-(((S)-1-oxo-3-((R)-2-oxopyrrolidin-3-yl)propan-2-yl)amino)pentan-2-yl)carbamate] | > 100 µM
CC(C)C[C@H](NC(=O)OCC1CN(S(C)(=O)=O)C1)C(=O)N[C@@H](C[C@H]1CCNC1=O)C(O)S(=O)(=O)O (stereo partly drawn) [Compound 17c, Sodium (2S)-1-hydroxy-2-((S)-4-methyl-2-((((1-(methylsulfonyl)azetidin-3-yl)methoxy)carbonyl)amino)pentanamido)-3-((R)-2-oxopyrrolidin-3-yl)propane-1-sulfonate] | > 100 µM
